How the values were obtained:
Format in all cases: cell-based
AMO-1 = assay: CellTiter-Glo cell viability, AMO-1
Experimental: (§1) The 50% inhibitory concentration (IC50) was determined in the cancer cell lines using CellTiter-Glo luminescent cell viability assay after incubation with different concentrations of active agents. Each cell line was treated with active Zn(II) agent, a standard chemotherapy drug as reference control, and culture medium as vehicle control. Cell Lines. All cell lines were cultured in media supplemented with 10-15% FBS, at a temperature of 37° C., 5% CO2, and 95% humidity. The reference control drug for all cell lines was cisplatin, to be used for genomic analysis. The cell lines tested, the tissue of origin are shown below in Table 1: Procedure for Determining Half Maximal Inhibition Concentration IC50 • 1. Harvested cells during the logarithmic growth period and count cell number using Count-star. • 2. Adjusted cell concentrations to 4.44×10^4 cells/mL with respective culture medium. • 3. Added 90 μL cell suspensions to two 96-well plates (plates A and B) with the final cell density of 4×10^3 cells/well. (cell concentration was adjusted according to the data base or density optimization assay.) • 4a. Next day: For the plates of TO reading: • 1) Added 10 μL culture medium to each well of plate A for TO reading. • 2) Equilibrated the plate and its content at RT for approximately 30 min. • 3) Added 50 μL CellTiter-Glo reagent to each well. • 4) Mixed content for 5 min on an orbital shaker to induce cell lysis. • 5) Allowed the plate to incubate at RT for 20 min to stabilize luminescent signal. • 6) Recorded luminescence (TO) using EnVision Multi Label Reader. • 4b. For the plates of test reading: • 1) Prepared 10× solution of Zn(II) agent test article. […] The formula for calculating surviving rate is shown below and the absolute IC50 (EC50) was calculated according to the dose-response curve generated by GraphPad Prism 5.0. • 12) The surviving rate (%)=(LumTest article−LumMedium control)/(LumNon-treated−LumMedium control)×100%.

KARPAS-422 = assay: CellTiter-Glo cell viability, KARPAS-422
Experimental: as §1

MCF7 = assay: CellTiter-Glo cell viability, MCF7
Experimental: The 50% inhibitory concentration (IC50) was determined in the cancer cell lines using CellTiter-Glo luminescent cell viability assay after incubation with different concentrations of active agents. Each cell line was treated with active Zn(II) agent, a standard chemotherapy drug as reference control, and culture medium as vehicle control. Cell Lines. All cell lines were cultured in media supplemented with 10-15% FBS, at a temperature of 37° C., 5% CO2, and 95% humidity. The reference control drug for all cell lines was cisplatin, to be used for genomic analysis. The cell lines tested, the tissue of origin are shown below in Table 1: Procedure for Determining Half Maximal Inhibition Concentration IC50 • 1. Harvested cells during the logarithmic growth period and count cell number using Count-star. • 2. Adjusted cell concentrations to 4.44×10^4 cells/mL with respective culture medium. • 3. Added 90 μL cell suspensions to two 96-well plates (plates A and B) with the final cell density of 4×10^3 cells/well. (cell concentration was adjusted according to the data base or density optimization assay.) • 4a. […]

MV-4-11 = assay: CellTiter-Glo cell viability, MV-4-11
Experimental: as §1

WSU-NHL = assay: CellTiter-Glo cell viability, WSU-NHL
Experimental: as §1

K-562 = assay: CellTiter-Glo cell viability, K-562
Experimental: as §1

L-363 = assay: CellTiter-Glo cell viability, L-363
Experimental: as §1

Kasumi-1 = assay: CellTiter-Glo cell viability, Kasumi-1
Experimental: as §1

JHH-7 = assay: CellTiter-Glo cell viability, JHH-7
Experimental: as §1

NCI-H460 = assay: CellTiter-Glo cell viability, NCI-H460
Experimental: as §1

THP-1 = assay: CellTiter-Glo cell viability, THP-1
Experimental: as §1

OVCAR-3 = assay: CellTiter-Glo cell viability, OVCAR-3
Experimental: as §1

NCI-H446 = assay: CellTiter-Glo cell viability, NCI-H446
Experimental: as §1

PC-3 = assay: CellTiter-Glo cell viability, PC-3
Experimental: as §1

Ramos = assay: CellTiter-Glo cell viability, Ramos
Experimental: as §1

Hep G2 = assay: CellTiter-Glo cell viability, Hep G2
Experimental: as §1

HCT-116 = assay: CellTiter-Glo cell viability, HCT-116
Experimental: as §1

Molt-4 = assay: CellTiter-Glo cell viability, Molt-4
Experimental: as §1

HL-60 = assay: CellTiter-Glo cell viability, HL-60
Experimental: as §1

U-937 = assay: CellTiter-Glo cell viability, U-937
Experimental: as §1

SK-HEP-1 = assay: CellTiter-Glo cell viability, SK-HEP-1
Experimental: as §1

Raji = assay: CellTiter-Glo cell viability, Raji
Experimental: as §1

CA46 = assay: CellTiter-Glo cell viability, CA46
Experimental: as §1

OCI-LY-19 = assay: CellTiter-Glo cell viability, OCI-LY-19
Experimental: as §1

Daudi = assay: CellTiter-Glo cell viability, Daudi
Experimental: as §1

[1] = 96 h, top conc. 50 μg/mL Zn(II) agent, 100 μM cisplatin

## N.N.[Cl][Pt][Cl] [Cisplatin]
AMO-1; 96 h, CellTiter-Glo
  Absolute IC50: 0.27 µg/mL
AMO-1; [1]
  % inhibition at top conc.: 99.99%
AMO-1; 96 h dose-response fit
  HillSlope: −3.34
KARPAS-422; 96 h, CellTiter-Glo
  Absolute IC50: 0.37 µg/mL
KARPAS-422; [1]
  % inhibition at top conc.: 99.99%
KARPAS-422; 96 h dose-response fit
  HillSlope: −1.04
MCF7; [1]
  % inhibition at top conc.: 96.37%
MCF7; 96 h dose-response fit
  HillSlope: −0.60
MV-4-11; 96 h, CellTiter-Glo
  Absolute IC50: 0.09 µg/mL
MV-4-11; [1]
  % inhibition at top conc.: 99.99%
MV-4-11; 96 h dose-response fit
  HillSlope: −2.06
WSU-NHL; 96 h, CellTiter-Glo
  Absolute IC50: 0.06 µg/mL
WSU-NHL; [1]
  % inhibition at top conc.: 99.99%
WSU-NHL; 96 h dose-response fit
  HillSlope: −1.77
K-562; 96 h, CellTiter-Glo
  Absolute IC50: 1.02 µg/mL
K-562; [1]
  % inhibition at top conc.: 97.71%
K-562; 96 h dose-response fit
  HillSlope: −1.81
L-363; 96 h, CellTiter-Glo
  Absolute IC50: 0.83 µg/mL
L-363; [1]
  % inhibition at top conc.: 99.98%
L-363; 96 h dose-response fit
  HillSlope: −2.08
Kasumi-1; 96 h, CellTiter-Glo
  Absolute IC50: 0.71 µg/mL
Kasumi-1; [1]
  % inhibition at top conc.: 99.98%
Kasumi-1; 96 h dose-response fit
  HillSlope: −1.18
JHH-7; 96 h, CellTiter-Glo
  Absolute IC50: 0.44 µg/mL
JHH-7; [1]
  % inhibition at top conc.: 99.16%
JHH-7; 96 h dose-response fit
  HillSlope: −0.80
NCI-H460; 96 h, CellTiter-Glo
  Absolute IC50: 0.15 µg/mL
NCI-H460; [1]
  % inhibition at top conc.: 99.98%
NCI-H460; 96 h dose-response fit
  HillSlope: −1.63
THP-1; 96 h, CellTiter-Glo
  Absolute IC50: 0.39 µg/mL
THP-1; [1]
  % inhibition at top conc.: 99.98%
THP-1; 96 h dose-response fit
  HillSlope: −3.03
OVCAR-3; 96 h, CellTiter-Glo
  Absolute IC50: 1.08 µg/mL
OVCAR-3; [1]
  % inhibition at top conc.: 97.70%
OVCAR-3; 96 h dose-response fit
  HillSlope: −2.96
NCI-H446; 96 h, CellTiter-Glo
  Absolute IC50: 0.35 µg/mL
NCI-H446; [1]
  % inhibition at top conc.: 99.99%
NCI-H446; 96 h dose-response fit
  HillSlope: −0.65
PC-3; 96 h, CellTiter-Glo
  Absolute IC50: 1.13 µg/mL
PC-3; [1]
  % inhibition at top conc.: 93.27%
PC-3; 96 h dose-response fit
  HillSlope: −1.55
Ramos; 96 h, CellTiter-Glo
  Absolute IC50: 0.17 µg/mL
Ramos; [1]
  % inhibition at top conc.: 99.99%
Ramos; 96 h dose-response fit
  HillSlope: −2.13
Hep G2; 96 h, CellTiter-Glo
  Absolute IC50: 0.55 µg/mL
Hep G2; [1]
  % inhibition at top conc.: 98.96%
Hep G2; 96 h dose-response fit
  HillSlope: −0.90
HCT-116; 96 h, CellTiter-Glo
  Absolute IC50: 2.89 µg/mL
HCT-116; [1]
  % inhibition at top conc.: 91.19%
HCT-116; 96 h dose-response fit
  HillSlope: −2.03
Molt-4; 96 h, CellTiter-Glo
  Absolute IC50: 0.10 µg/mL
Molt-4; [1]
  % inhibition at top conc.: 99.99%
Molt-4; 96 h dose-response fit
  HillSlope: −2.01
HL-60; 96 h, CellTiter-Glo
  Absolute IC50: 0.29 µg/mL
HL-60; [1]
  % inhibition at top conc.: 99.99%
HL-60; 96 h dose-response fit
  HillSlope: −2.08
U-937; 96 h, CellTiter-Glo
  Absolute IC50: 0.37 µg/mL
U-937; [1]
  % inhibition at top conc.: 99.99%
U-937; 96 h dose-response fit
  HillSlope: −4.57
SK-HEP-1; 96 h, CellTiter-Glo
  Absolute IC50: 2.13 µg/mL
SK-HEP-1; [1]
  % inhibition at top conc.: 99.93%
SK-HEP-1; 96 h dose-response fit
  HillSlope: −1.28
Raji; 96 h, CellTiter-Glo
  Absolute IC50: 0.50 µg/mL
Raji; [1]
  % inhibition at top conc.: 99.57%
Raji; 96 h dose-response fit
  HillSlope: −2.98
CA46; 96 h, CellTiter-Glo
  Absolute IC50: 0.21 µg/mL
CA46; [1]
  % inhibition at top conc.: 99.92%
CA46; 96 h dose-response fit
  HillSlope: −1.96
OCI-LY-19; 96 h, CellTiter-Glo
  Absolute IC50: 0.04 µg/mL
OCI-LY-19; [1]
  % inhibition at top conc.: 99.99%
OCI-LY-19; 96 h dose-response fit
  HillSlope: −2.61
Daudi; 96 h, CellTiter-Glo
  Absolute IC50: 0.11 µg/mL
Daudi; [1]
  % inhibition at top conc.: 99.86%
Daudi; 96 h dose-response fit
  HillSlope: −1.59

Reference: US20210128609A1, “ONCOLOGY TREATMENTS USING ZINC AGENTS” (XYLONIX IP HOLDINGS PTE. LTD., priority 2018, published 2021)
